Measured values as given in PubChem BioAssay AID2474 (The Scripps Research Institute Molecular Screening Center, 2010).

Target: Hepatitis C virus NS3 helicase
Experiment: HCV NS3 helicase inhibitor potency, late-stage follow-up, biochemical, fluorescence, dose response (AID 2474)
Settings: recombinant NS3 helicase, fluorescence unwinding assay

| IC50 [nM] | SMILES |
| --- | --- |
| 5290 | CCOc1cccc(C2C(C(=O)c3ccc(C)o3)=C(O)C(=O)N2Cc2ccccc2)c1 (configuration not stated) |
| 1470 | Cc1cc(N2C(=O)C(O)=C(C(=O)c3ccc(C)o3)C2c2ccc(OCc3ccccc3)cc2)no1 (configuration not stated) |
| 1630 | COc1cc(C2C(C(=O)c3ccc(C)o3)=C(O)C(=O)N2c2cc(C)on2)ccc1OCc1ccccc1 (configuration not stated) |
| 2880 | COc1cccc(-n2c(SCc3cc(=O)oc4cc(O)c(O)cc34)nc3ccccc3c2=O)c1 |

Second part, the compound before the results:

| SMILES | IC50 [nM] |
| --- | --- |
| CCCCCOc1ccc(C2C(C(=O)c3ccc(C)o3)=C(O)C(=O)N2c2cc(C)on2)cc1 (configuration not stated) | 1810 |
| Cc1ccc(C(=O)C2=C(O)C(=O)N(Cc3ccco3)C2c2cccc(Cl)c2)o1 (configuration not stated) | 6590 |
| COc1ccc(C=NNC(=O)c2cc(O)c(O)c(O)c2)cc1COc1ccc(C(=O)OCC(C)C)cc1 | 9370 |
